In article PMC8705538, “Discovery of SARS-CoV-2 Nsp14 and Nsp16 Methyltransferase Inhibitors by High-Throughput Virtual Screening” (Pharmaceuticals, 2021):
Where two headings read alike, the source gives them in different places.

Tests used:
SARS-CoV-2 nsp14 = SARS-CoV-2 nsp14 (Severe acute respiratory syndrome coronavirus 2, UniProt P0DTD1); assay: biochemical; conditions: for Ligand Efficiency (LE) nsp14: estimated from IC50 values; for inhibition at 100 µM: read-out: Percent inhibition at 100 μM, nsp14
A549 cell culture = assay: Cell permeability testing (LC/MS/MS of cell lysates and media); format: in vitro ADME, human; conditions: for Cell Permeability, 2 × 10^4 Cells/L / Cell Permeability, 4 × 10^4 Cells/L: 24 h; for cell permeability (in words): A549
Procedure: To test cell permeability, each compound was added to A549 cell culture at a concentration of 20 μM and incubated for 24 h. Cells were seeded in 6-well plates at a density of 2 × 10^4 and 4 × 10^4 cells per well at concentrations 1 × 10^4 and 2 × 10^4 cells/mL media for the testing of each compound, each in three replicates. After the incubation, the cell cultivation media and cell lysates were collected. After the removal of media, cells were washed with ice-cold PBS (Sigma, D1408, Irvin, UK) and lysed for 30 min in 500 µL per well ice-cold RIPA buffer (Sigma, R0278, St Louis, MO, USA). Samples were stored at −80 °C until analysis.
The quantitative determination of tested compounds in cell lysates and culture media was performed on a Waters MICROMASS QUATTRO microTM tandem mass spectrometer combined with Acquity UPLC system. Acquity UPLC BEH C8 (2.1 × 50 mm × 1.7 μm) column was used at a flow rate of 0.25 mL/min. The column oven was set at 30 °C, and the sample injection volume was 5 μL. The mobile phase consisted of a combination of A (0.1% formic acid in water) and B (acetonitrile). The gradient elution program from 5% B to 98% B in 5 min was applied for analysis. Tandem mass spectrometer in positive electrospray mode was used for quantification. The TargetLynx software was applied to process LC/MS/MS data. Samples for LC/MS/MS analysis were prepared as follows: 200 μL of acetonitrile/methanol mixture (3:1 v/v) was add to 200 μL of each cell lysate and culture media sample. Then, the samples were centrifuged (10,000 rpm, 10 min), and the supernatants (300 μL) were removed from each sample and placed in vials for LC/MS/MS analysis. Calibration curves for all analytes were produced by analysis of standard solutions over a concentration range of 0.2 to 20 μM.

[1] = target: T1, human Glycine N-Methyltransferase (GNMT) (Homo sapiens, UniProt Q14749); assay: HTRF methyltransferase selectivity assay, human GNMT; format: biochemical; conditions: for Ligand Efficiency (LE) Human (hMtase): estimated from IC50 values; for inhibition at 100 µM: read-out: Percent inhibition at 100 μM, Human
T1 construct: purchased MyBioSource MBS636160
T1 sequence (Q14749 1-295): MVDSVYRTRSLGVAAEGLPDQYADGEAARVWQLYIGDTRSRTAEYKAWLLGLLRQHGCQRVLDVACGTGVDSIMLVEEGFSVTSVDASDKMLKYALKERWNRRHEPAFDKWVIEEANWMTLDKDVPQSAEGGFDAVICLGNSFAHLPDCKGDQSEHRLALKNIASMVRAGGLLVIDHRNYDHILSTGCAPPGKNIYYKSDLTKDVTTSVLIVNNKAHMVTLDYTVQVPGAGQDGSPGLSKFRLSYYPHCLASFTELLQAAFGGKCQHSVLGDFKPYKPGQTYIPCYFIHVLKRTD

[2] = Cytotoxicity, neutral red uptake, A549; format: cell-based; conditions: human
Procedure: (§1) A549 human non-small cell lung cancer cell line, HepG2 hepatocarcinoma cells, and BALB/c 3T3 clone A31 murine fibroblast cell line for the study were obtained from ATCC (American Type Culture Collection, Manassas, VA, USA). Cells were propagated in DMEM medium (Sigma, D6046, Irvin, UK) supplemented with 1% penicillin (100 U/mL)–streptomycin (100 μg/mL) and 10% foetal bovine serum (Sigma, F7524, St Louis, MO, USA) in case of A549 and HepG2 or 10% calf serum (Sigma, C8056, St Louis, MO, USA) in case of BALB/c 3T3. All cultivations were performed in a humidified 5% CO2 atmosphere at 37 °C.
(§2) The cytotoxicity of the compounds was tested in A549, HepG2, and BALB/c3T3 cell lines by neutral red (NR) uptake assay. A549 and BALB/c3T3 cells were seeded in 96-well plates at a density of 8 × 10^3 cells per well, HepG2 at density 1.2 × 10^4 cells per well. After 24 h incubation, test compounds in a concentration range of 0.8 to 200 μM were added. Cultivation in the presence of test compounds was done for 48 h. Afterwards, the plates were washed with phosphate-buffered saline (PBS) (Sigma, D8537, Irvin, UK), and 25 µg/mL NR solution (Sigma, N2889, Irvin, UK) was added. In case of BALB/c 3T3 cells, NR was diluted in 5% foetal calf serum containing media, while for A549 and HepG2 cells, it was diluted in 5% foetal bovine serum containing media. After 3 h incubation, the plate was washed with PBS, and the NR taken up by viable cells was extracted using desorbing fixative (50% ethanol/1% acetic acid/49% water). Absorbance at 540 nm was measured using a Tecan M200 Infinite Pro microplate reader. Cytotoxicity was expressed as a concentration-dependent reduction of the uptake of NR, compared to the untreated controls, and the IC50 value for each compound was calculated.

SARS-CoV-2 nsp16/nsp10 = SARS-CoV-2 nsp16/nsp10 (Severe acute respiratory syndrome coronavirus 2, UniProt P0DTD1); assay: biochemical; conditions: for Ligand Efficiency (LE) nsp16: estimated from IC50 values; for inhibition at 100 µM: read-out: Percent inhibition at 100 μM, nsp16
[3] = Cytotoxicity, neutral red uptake, 3T3; format: cell-based, murine; conditions: mouse
Procedure: as §1, §2

[4] = Cytotoxicity, neutral red uptake, HepG2; format: cell-based; conditions: human
Procedure: as §1, §2

[5] = test system: 3T3, A549, and HepG2 cell lines; assay: Cytotoxicity, summary statements over the three cell lines; format: cell-based; conditions: 3T3, A549, HepG2
Procedure: as §2

[6] = HTRF, SAM 10 µM, GpppG 4 µM, read-out: IC50 nsp14
[7] = HTRF, SAM 10 µM, glycine 5 mM, read-out: IC50 Human (hMtase, human glycine N-methyltransferase)
[8] = HTRF, nsp16/nsp10, SAM 10 µM, m7GpppA-RNA, read-out: IC50 nsp16
[9] = A549, compound 20 μM, LOQ 0.2 μM or 1%
[10] = 48 h, neutral red uptake, read-out: Cytotoxicity (CC50) A549
[11] = 48 h, neutral red uptake, read-out: Cytotoxicity (CC50) 3T3
[12] = 48 h, neutral red uptake, read-out: Cytotoxicity (CC50) HepG2

SMILES	IC50 (SARS-CoV-2 nsp14; [6])	Ligand Efficiency (LE) nsp14 (SARS-CoV-2 nsp14)	Cell Permeability, 2 × 10^4 Cells/L (A549 cell culture; human, 20 μM)	Cell Permeability, 4 × 10^4 Cells/L (A549 cell culture; human, 20 μM)	IC50 [1, 7]	Ligand Efficiency (LE) Human (hMtase) [1]	CC50 at 48 h [2]	Ligand Efficiency (LE) nsp16 (SARS-CoV-2 nsp16/nsp10)	CC50 at 48 h [3]	CC50 at 48 h [4]	IC50 (SARS-CoV-2 nsp16/nsp10)	Cell Permeability, 2 × 10^4 Cells/L (A549 cell culture; [9])	Cell Permeability, 4 × 10^4 Cells/L (A549 cell culture; [9])	CC50 at 48 h [2, 10]	CC50 at 48 h [3, 11]	CC50 at 48 h [4, 12]	IC50 (SARS-CoV-2 nsp14)	inhibition at 100 µM (SARS-CoV-2 nsp14)	cell permeability (in words) (A549 cell culture)	IC50 [1]	further results
CCNC(=O)NCCSC[C@H]1O[C@@H](n2cnc3c(N)ncnc32)[C@H](O)[C@@H]1O [ZINC473112262]	3.1 µM	0.28 kcal/mol	0.3%	0.3%	5.8 µM	0.26 kcal/mol	> 100 µM	0.28 kcal/mol	> 100 µM	> 100 µM											IC50 (SARS-CoV-2 nsp16/nsp10; [8]): 2.46 µM
CSC[C@H]1O[C@@H](n2cnc3c(N)ncnc32)[C@H](O)[C@@H]1O [ZINC4228245]	1.4 µM	0.40 kcal/mol	0.7%	0.8%	1.8 µM	0.39 kcal/mol	> 200 µM	0.41 kcal/mol	> 200 µM	> 200 µM	1.02 µM										
Nc1ncnc2c1ncn2[C@@H]1O[C@H](C[C@@H](N)CC[C@H](N)C(=O)O)[C@@H](O)[C@H]1O [Sinefungin, reference compound]												<LOD	<LOD	72.9 µM	99.2 µM	> 100 µM					
O=C(CCCn1cncn1)N1CCCC(c2nc3ccccc3s2)C1 (stereo not shown) [ZINC23398144]		0.23 kcal/mol				0.20 kcal/mol		0.21 kcal/mol			197 ± 9 µM	0.7%	0.6%	> 100 µM	> 100 µM	> 100 µM	77 ± 3 µM	57 ± 8%	low level of cell permeability	315 ± 5 µM	inhibition at 100 µM [1]: 21 ± 2%; inhibition at 100 µM (SARS-CoV-2 nsp16/nsp10): 39 ± 7%; cytotoxicity (in words) [5]: no measurable cytotoxicity
O=C(Cn1c(=O)[nH]c2c(-c3ccccc3)c[nH]c2c1=O)NCc1cccnc1 [ZINC33037945]		0.19 kcal/mol				0.19 kcal/mol						17.9%	30.8%	> 100 µM	> 100 µM	> 100 µM	106 ± 5 µM	56 ± 5%	good cell permeability	125 ± 6 µM	inhibition at 100 µM [1]: 53 ± 8%; IC50 nsp16 (SARS-CoV-2 nsp16/nsp10; HTRF, nsp16/nsp10, SAM 10 µM, m7GpppA-RNA): inactive; inhibition at 100 µM (SARS-CoV-2 nsp16/nsp10): -8 ± 6%; cytotoxicity (in words) [5]: no measurable cytotoxicity
Cc1ccc(S(=O)(=O)OC[C@H]2O[C@@H](n3cnc4c(N)ncnc43)[C@H](O)[C@@H]2O)cc1 [ZINC3861767]	1.5 µM	0.27 kcal/mol	2.2%	0.5%	2.8 µM	0.26 kcal/mol	> 200 µM	0.28 kcal/mol	> 200 µM	> 200 µM											IC50 (SARS-CoV-2 nsp16/nsp10; [8]): 1.14 µM
O=C(Cc1csc(SCC(=O)c2ccccc2)n1)Nc1cccc2nsnc12 [ZINC38661771]		0.19 kcal/mol				0.21 kcal/mol		0.21 kcal/mol			51 ± 2 µM	<LOQ	<LOQ	97 µM	116 µM	93.8 µM	118 ± 4 µM	58 ± 7%	low level of cell permeability	58 ± 3 µM	inhibition at 100 µM [1]: 63 ± 5%; inhibition at 100 µM (SARS-CoV-2 nsp16/nsp10): 69 ± 8%; concentration at which cytotoxicity was shown [5]: ≈ 100 μM
